Results as given in patent US8415469B2, “Compounds and methods for kinase modulation, and indications therefor” (Plexxikon Inc., priority 2005, dated 2013).

Experiments:
Format in all cases: biochemical
Jnk3 = molecular target: T1, Jnk3 (Homo sapiens, UniProt P53779); test: AlphaScreen kinase assay, Jnk3; details: read-out: IC50, activity toward kinase Jnk3
T1 construct: purchased Upstate Biotechnology

B-Raf V600E = molecular target: T2, B-Raf V600E (Homo sapiens, UniProt P15056, V600E); test: AlphaScreen kinase assay, B-Raf V600E; details: read-out: IC50, activity toward kinase B-Raf V600E
T2 construct: P4254. pFastBacBD-CDC37 BRAF D437-K722-X, V600E; His6 with pFastBac HT leader (TEV site) (N); made in house; host or cells: Sf9 (baculovirus; chaperone CDC37 co-expressed)

Ret = molecular target: T3, Ret (Homo sapiens, UniProt P07949); test: AlphaScreen kinase assay, Ret; details: read-out: IC50, activity toward kinase Ret
T3 construct: P1378.pET-SF BI-PTP RET H661-R1012 HIS; made in house
T3 sequence (P07949 with tags, fused parts or gaps): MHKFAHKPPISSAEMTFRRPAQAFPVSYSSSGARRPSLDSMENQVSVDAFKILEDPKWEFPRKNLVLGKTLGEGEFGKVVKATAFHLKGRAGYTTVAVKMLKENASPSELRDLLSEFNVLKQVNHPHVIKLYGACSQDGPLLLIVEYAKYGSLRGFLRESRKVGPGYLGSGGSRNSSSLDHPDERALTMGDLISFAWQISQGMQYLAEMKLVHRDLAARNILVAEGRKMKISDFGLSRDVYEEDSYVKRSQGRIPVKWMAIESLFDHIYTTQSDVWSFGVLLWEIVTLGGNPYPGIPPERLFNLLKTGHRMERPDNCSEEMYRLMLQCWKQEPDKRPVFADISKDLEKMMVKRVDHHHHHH

Fms = molecular target: T4, Fms (Homo sapiens, UniProt P07333); test: AlphaScreen kinase assay, Fms; details: read-out: IC50, activity toward kinase Fms
T4 construct: purchased Upstate Biotechnology
Protocol: (§3) AlphaScreen assays were done using compounds dissolved in DMSO to a concentration of 20 mM. The compounds were diluted accordingly to the desired final concentrations in each sample well, using 1:3 serial dilution for a total of 8 concentration points. Plates were prepared such that each kinase reaction is 20 μl in 1× kinase buffer, 5% DMSO and 10 μM ATP. After incubation of the kinase reaction for 1 hour at room temperature, 5 μl of donor beads in stop buffer (50 mM EDTA in 1× kinase buffer) was added, the sample was mixed and incubated for 20 minutes at room temperature before adding 5 μl of acceptor beads in stop buffer. The samples were incubated for 60 minutes at room temperature and the signal per well was read on AlphaQuest reader.

FGFR1 = molecular target: T5, FGFR1 (Homo sapiens, UniProt P11362, C488A/C584S); test: AlphaScreen kinase assay, FGFR1; details: read-out: IC50, activity toward kinase FGFR
T5 construct: P1351.pET N6 BI-PTP FGFR A458-E765-X C488A, C584S; made in house; host or cells: E. coli (PTP1B co-expressed)

Jnk1 = molecular target: T6, Jnk1 (Homo sapiens, UniProt P45983); test: AlphaScreen kinase assay, Jnk1; details: read-out: IC50, activity toward kinase Jnk1
T6 construct: purchased Upstate Biotechnology

Src = molecular target: T7, Src (Homo sapiens, UniProt P12931); test: AlphaScreen kinase assay, Src; details: read-out: IC50, activity toward kinase Src
T7 construct: P1144. pET-N6 BI-PTP SRC V86-L536-X; made in house

Kit = molecular target: T8, Kit (Homo sapiens, UniProt P10721); test: AlphaScreen kinase assay, Kit; details: read-out: IC50, activity toward kinase Kit
T8 construct: P1332.N6 BI PTP KIT M552-K948-X COD; His6 (N); made in house; host or cells: E. coli (PTP1B co-expressed)

Flt1 = molecular target: T9, Flt1 (Homo sapiens, UniProt P17948); test: AlphaScreen kinase assay, Flt1; details: read-out: IC50, activity toward kinase Flt1
T9 construct: P1826.pETN6 BI-PTP FLT1 M799-D1165-X WT; His6 (N); made in house; host or cells: E. coli (PTP1B co-expressed)
T9 sequence (P17948 with tags, fused parts or gaps): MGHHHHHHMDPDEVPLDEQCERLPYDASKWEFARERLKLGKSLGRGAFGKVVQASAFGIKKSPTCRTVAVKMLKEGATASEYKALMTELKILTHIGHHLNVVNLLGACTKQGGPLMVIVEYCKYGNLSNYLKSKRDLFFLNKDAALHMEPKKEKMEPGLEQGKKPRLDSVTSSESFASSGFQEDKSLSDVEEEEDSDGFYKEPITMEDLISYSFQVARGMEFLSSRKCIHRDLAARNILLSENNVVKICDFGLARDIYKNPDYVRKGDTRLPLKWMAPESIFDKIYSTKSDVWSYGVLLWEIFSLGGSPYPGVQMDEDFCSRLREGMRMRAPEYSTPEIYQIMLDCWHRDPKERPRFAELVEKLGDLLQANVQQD

Abl = molecular target: T10, Abl (Homo sapiens, UniProt P00519); test: AlphaScreen kinase assay, Abl; details: read-out: activity toward kinase Abl, IC50
T10 construct: P1121. pET-SPEC BI-PTP Abl G227-V515-X; His6 (N); made in house; host or cells: E. coli (PTP1B co-expressed)
T10 sequence (P00519 with tags, fused parts or gaps): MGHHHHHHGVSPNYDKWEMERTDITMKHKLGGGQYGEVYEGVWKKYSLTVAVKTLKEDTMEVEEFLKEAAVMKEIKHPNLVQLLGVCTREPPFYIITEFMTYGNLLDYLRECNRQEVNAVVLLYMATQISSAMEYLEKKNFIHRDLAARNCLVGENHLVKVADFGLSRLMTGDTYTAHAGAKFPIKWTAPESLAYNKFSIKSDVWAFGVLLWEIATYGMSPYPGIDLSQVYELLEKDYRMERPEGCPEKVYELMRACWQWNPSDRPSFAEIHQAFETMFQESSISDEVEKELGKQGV
Text: (§1) AlphaScreen assay was used to screen additional kinases. The assay is similarly dependent on the phosphorylation of a peptide substrate. In this assay, an antibody that recognizes phosphorylated substrate is bound to an acceptor bead. The peptide substrate is attached to biotin, which binds to a donor head that contains streptavidin. Thus phosphorylated substrate is bound by antibody and streptavidin, bringing the donor and acceptor heads into close proximity when kinase is not inhibited. The donor produces singlet oxygen which results in emission from the acceptor when they are in close proximity. Conversely, when kinase is inhibited, the donor and acceptor beads are not associated and the emission from the acceptor is reduced.
(§2) AlphaScreen assays were done using compounds dissolved in DMSO to a concentration of 20 mM. The compounds were diluted accordingly to the desired final concentrations in each sample well, using 1:3 serial dilution for a total of 8 concentration points.

Pyk2 = molecular target: T11, Pyk2 (Homo sapiens, UniProt Q14289); test: AlphaScreen kinase assay, Pyk2; details: read-out: IC50, activity toward kinase Pyk2
T11 construct: purchased Upstate Biotechnology

Fak = molecular target: T12, Fak (Homo sapiens, UniProt Q05397); test: AlphaScreen kinase assay, Fak; details: read-out: IC50, activity toward kinase Fak
T12 construct: P1358.pFastBacHtb FAK S411-Q686-X; His6 with pFastBacHTb leader (TEV site) (N); made in house; host or cells: Sf9 (baculovirus)

Kdr = molecular target: T13, Kdr (Homo sapiens, UniProt P35968); test: Z'-Lyte FRET kinase assay (Invitrogen), Kdr; details: read-out: IC50, activity toward kinase Kdr
T13 construct: purchased Invitrogen (assay run by Invitrogen)

B-Raf = molecular target: T14, B-Raf (Homo sapiens, UniProt P15056); test: AlphaScreen kinase assay, B-Raf; details: read-out: IC50, activity toward kinase B-Raf
T14 construct: purchased Upstate Biotechnology

c-Raf-1 = molecular target: T15, c-Raf-1 (Homo sapiens, UniProt P04049); test: AlphaScreen kinase assay, c-Raf-1; details: read-out: IC50, activity toward kinase c-Raf-1
T15 construct: purchased Upstate Biotechnology
Protocol: as §3

Jnk2 = molecular target: T16, Jnk2 (Homo sapiens, UniProt P45984); test: AlphaScreen kinase assay, Jnk2; details: read-out: IC50, activity toward kinase Jnk2
T16 construct: purchased Roche Protein Expression Group (Indianapolis, IN)
Procedure, shortened: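 Emission from acceptor beads reports phosphorylated biotin-peptide bridging antibody-coated acceptor and streptavidin donor beads; loss of signal reflects kinase inhibition. Eight-point, threefold dilution series prepared from 20 mM DMSO stocks.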

MAP4K4 = MAP4K4 (Homo sapiens, UniProt O95819); test: AlphaScreen kinase assay, MAP4K4; details: read-out: IC50, activity toward kinase MAP4K4
Akt3 = Akt3 (Homo sapiens, UniProt Q9Y243); test: AlphaScreen kinase assay, Akt3; details: read-out: IC50, activity toward kinase Akt3
Text: as §1, §2

Measured: IC50

T8 sequence (P10721 with tags, fused parts or gaps): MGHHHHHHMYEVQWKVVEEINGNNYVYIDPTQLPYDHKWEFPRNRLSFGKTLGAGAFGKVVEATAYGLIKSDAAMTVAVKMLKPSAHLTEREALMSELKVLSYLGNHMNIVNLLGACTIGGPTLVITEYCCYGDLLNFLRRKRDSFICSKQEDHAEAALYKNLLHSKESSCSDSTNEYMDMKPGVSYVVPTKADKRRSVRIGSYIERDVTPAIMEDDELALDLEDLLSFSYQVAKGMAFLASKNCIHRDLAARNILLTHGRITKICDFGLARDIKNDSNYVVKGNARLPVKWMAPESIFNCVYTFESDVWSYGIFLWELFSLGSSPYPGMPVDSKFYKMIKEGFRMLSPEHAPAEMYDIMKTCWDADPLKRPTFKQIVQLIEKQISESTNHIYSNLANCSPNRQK
T7 sequence (P12931 with tags, fused parts or gaps): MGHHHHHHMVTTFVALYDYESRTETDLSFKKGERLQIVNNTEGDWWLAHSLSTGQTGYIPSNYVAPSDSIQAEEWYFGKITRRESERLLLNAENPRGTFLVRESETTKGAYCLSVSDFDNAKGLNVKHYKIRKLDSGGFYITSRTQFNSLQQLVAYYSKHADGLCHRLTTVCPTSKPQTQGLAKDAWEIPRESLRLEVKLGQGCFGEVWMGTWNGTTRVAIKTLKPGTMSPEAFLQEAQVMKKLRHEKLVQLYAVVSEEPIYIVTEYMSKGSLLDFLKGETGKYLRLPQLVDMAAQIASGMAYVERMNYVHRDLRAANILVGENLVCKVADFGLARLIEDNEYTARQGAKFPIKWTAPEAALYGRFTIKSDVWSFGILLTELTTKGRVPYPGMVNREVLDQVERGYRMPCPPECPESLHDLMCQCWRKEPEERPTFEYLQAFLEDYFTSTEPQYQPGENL
T5 sequence (P11362 458-765 C488A/C584S): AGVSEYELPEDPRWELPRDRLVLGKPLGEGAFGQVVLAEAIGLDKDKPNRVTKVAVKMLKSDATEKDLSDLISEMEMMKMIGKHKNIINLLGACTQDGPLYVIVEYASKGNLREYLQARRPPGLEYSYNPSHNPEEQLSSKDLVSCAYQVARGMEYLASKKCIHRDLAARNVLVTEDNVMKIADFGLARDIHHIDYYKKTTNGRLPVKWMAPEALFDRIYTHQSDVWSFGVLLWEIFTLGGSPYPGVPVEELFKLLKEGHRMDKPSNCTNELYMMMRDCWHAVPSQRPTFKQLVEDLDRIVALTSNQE
T1 sequence (P53779 whole entry): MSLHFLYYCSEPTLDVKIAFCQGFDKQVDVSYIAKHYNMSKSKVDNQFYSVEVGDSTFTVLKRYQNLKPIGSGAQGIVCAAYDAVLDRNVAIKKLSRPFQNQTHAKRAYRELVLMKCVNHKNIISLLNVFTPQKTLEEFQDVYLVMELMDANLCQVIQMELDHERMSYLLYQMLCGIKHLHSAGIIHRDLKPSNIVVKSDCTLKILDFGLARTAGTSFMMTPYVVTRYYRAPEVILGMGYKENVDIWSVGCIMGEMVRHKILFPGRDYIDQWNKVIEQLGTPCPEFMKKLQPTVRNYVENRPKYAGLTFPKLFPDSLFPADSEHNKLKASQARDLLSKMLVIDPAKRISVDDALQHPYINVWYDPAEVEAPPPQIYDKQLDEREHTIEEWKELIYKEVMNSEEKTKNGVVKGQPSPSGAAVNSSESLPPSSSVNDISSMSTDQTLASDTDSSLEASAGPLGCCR
T2 sequence (P15056 with tags, fused parts or gaps V600E): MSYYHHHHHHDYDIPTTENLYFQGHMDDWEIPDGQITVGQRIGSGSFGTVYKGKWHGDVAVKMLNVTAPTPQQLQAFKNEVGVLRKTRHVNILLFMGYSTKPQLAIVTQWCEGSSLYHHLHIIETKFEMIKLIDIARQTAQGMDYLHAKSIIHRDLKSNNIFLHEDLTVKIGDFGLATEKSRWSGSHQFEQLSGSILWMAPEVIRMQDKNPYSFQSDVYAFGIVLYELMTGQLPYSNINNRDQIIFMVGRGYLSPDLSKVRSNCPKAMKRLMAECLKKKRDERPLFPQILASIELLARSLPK
T14 sequence (P15056 whole entry): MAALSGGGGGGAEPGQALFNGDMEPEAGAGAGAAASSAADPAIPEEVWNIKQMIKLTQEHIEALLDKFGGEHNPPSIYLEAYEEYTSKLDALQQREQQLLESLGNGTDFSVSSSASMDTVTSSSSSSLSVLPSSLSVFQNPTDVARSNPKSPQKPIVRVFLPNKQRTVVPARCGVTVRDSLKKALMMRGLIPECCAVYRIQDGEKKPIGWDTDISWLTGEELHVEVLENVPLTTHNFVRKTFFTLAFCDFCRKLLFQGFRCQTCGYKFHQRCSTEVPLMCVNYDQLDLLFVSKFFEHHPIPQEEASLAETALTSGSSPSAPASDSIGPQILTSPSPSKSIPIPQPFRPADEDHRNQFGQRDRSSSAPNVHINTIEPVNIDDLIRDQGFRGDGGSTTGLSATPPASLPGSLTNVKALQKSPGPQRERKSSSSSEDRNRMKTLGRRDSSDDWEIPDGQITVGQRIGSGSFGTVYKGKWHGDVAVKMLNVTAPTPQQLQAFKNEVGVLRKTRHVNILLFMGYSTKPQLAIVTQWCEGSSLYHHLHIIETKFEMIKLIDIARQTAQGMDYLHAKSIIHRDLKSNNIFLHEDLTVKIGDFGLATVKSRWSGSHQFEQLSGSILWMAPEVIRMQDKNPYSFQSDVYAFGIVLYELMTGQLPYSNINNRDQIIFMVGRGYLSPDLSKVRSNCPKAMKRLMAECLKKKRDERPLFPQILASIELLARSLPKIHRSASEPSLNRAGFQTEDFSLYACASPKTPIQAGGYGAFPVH
T15 sequence (P04049 whole entry): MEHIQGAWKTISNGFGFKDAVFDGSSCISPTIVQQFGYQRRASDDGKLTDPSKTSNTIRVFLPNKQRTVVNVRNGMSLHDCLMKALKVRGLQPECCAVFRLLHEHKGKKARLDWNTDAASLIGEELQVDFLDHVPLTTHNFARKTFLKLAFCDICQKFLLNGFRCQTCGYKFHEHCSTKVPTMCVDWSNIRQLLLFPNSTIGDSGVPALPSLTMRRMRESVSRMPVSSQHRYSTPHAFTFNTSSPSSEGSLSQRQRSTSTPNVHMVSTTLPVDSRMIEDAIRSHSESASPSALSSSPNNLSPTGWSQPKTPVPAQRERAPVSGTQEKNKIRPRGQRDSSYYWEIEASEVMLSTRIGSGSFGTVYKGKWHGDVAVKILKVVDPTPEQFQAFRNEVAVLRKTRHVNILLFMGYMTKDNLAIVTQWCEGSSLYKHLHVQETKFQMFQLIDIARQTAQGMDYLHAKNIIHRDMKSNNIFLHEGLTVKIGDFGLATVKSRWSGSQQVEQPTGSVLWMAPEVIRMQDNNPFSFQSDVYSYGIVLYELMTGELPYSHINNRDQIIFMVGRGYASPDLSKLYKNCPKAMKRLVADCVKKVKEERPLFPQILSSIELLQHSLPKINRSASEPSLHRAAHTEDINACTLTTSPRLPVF
T4 sequence (P07333 20-972): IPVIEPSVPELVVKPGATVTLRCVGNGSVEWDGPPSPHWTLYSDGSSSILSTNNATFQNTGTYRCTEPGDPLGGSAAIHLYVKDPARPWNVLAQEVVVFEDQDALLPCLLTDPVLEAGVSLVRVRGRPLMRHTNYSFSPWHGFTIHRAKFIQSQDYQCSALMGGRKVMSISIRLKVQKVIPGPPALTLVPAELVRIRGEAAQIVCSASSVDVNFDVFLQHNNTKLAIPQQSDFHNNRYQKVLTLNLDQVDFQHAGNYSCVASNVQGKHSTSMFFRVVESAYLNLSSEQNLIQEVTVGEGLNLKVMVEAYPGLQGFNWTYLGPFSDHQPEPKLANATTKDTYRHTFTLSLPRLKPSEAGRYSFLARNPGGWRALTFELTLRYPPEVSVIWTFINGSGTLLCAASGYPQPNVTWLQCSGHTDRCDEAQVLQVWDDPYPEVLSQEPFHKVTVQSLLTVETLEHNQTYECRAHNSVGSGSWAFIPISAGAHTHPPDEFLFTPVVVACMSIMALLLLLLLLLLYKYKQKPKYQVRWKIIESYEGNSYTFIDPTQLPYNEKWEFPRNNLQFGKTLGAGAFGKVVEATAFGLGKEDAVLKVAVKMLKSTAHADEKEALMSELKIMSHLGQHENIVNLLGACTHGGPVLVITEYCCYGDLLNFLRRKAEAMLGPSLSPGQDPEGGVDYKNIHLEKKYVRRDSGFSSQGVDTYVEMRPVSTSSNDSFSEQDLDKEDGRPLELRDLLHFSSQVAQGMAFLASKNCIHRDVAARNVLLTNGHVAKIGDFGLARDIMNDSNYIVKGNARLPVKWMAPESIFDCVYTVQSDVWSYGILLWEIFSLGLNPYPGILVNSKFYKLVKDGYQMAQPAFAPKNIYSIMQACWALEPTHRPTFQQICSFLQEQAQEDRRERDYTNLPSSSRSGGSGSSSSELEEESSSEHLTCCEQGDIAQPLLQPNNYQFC
T6 sequence (P45983 whole entry): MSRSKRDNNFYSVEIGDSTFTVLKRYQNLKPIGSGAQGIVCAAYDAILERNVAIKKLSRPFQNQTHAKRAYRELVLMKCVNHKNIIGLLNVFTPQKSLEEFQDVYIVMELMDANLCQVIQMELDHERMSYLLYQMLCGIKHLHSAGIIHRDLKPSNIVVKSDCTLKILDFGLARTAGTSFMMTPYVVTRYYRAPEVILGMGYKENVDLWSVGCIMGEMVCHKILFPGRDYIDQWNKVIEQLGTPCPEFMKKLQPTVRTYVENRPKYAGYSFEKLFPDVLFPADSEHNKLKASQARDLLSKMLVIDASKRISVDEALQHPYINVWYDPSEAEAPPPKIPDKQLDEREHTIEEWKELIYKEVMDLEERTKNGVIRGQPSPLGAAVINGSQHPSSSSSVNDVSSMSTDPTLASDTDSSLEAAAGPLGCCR

Cc1ccccc1C(=O)c1c[nH]c2ncc(-c3ccsc3)cc12 [Compound P-0244]
≤ 10 µM: Jnk3 | B-Raf V600E | Ret | Fms | FGFR1 | Jnk1 | Src | Kit | Flt1 | Abl

COc1cccc(Cc2c[nH]c3nccc(Br)c23)c1 [Compound P-0501]
≤ 10 µM: Ret | Fms | FGFR1 | Pyk2 | Src | Kit | Abl | Fak

c1csc(Sc2c[nH]c3ncccc23)c1 [Compound P-0529]
≤ 10 µM: Pyk2 | Abl

CCOc1cccc(Cc2c[nH]c3ncc(-c4ccsc4)cc23)c1 [Compound P-0562]
≤ 10 µM: Jnk3 | FGFR1 | Pyk2 | Src | Kit | Kdr | Abl

O=C(c1cc(O)ccc1F)c1c[nH]c2ncc(-c3ccsc3)cc12 [Compound P-0604]
≤ 10 µM: Jnk3 | B-Raf V600E | Ret | B-Raf | Kit | c-Raf-1 | Abl

Cc1ccccc1C(=O)c1c[nH]c2ncc(-c3cccnc3)cc12 [Compound P-0623]
≤ 10 µM: B-Raf V600E | Ret | FGFR1 | Src | Kit | Kdr | Jnk2 | Abl

Cc1ccc(F)cc1C(=O)c1c[nH]c2ncc(-c3ccsc3)cc12 [Compound P-0671]
≤ 10 µM: Jnk3 | B-Raf V600E | Ret | FGFR1 | Kit | Abl

Cc1ccc(F)cc1C(=O)c1c[nH]c2ncc(-c3cccnc3)cc12 [Compound P-0693]
≤ 10 µM: B-Raf V600E | Ret | FGFR1 | B-Raf | Kit | Abl

O=C(c1cc(O)ccc1F)c1c[nH]c2nccc(Cl)c12 [Compound P-0794]
≤ 10 µM: B-Raf V600E | Ret | B-Raf | Kit | c-Raf-1 | Abl

COc1ccc(S(=O)(=O)Nc2ccc(F)c(C(=O)c3c[nH]c4ncccc34)c2F)cc1 [Compound P-0958, N-[2,4-Difluoro-3-(1H-pyrrolo[2,3-b]pyridine-3-carbonyl)-phenyl]-4-methoxy-benzenesulfonamide]
not listed: Jnk3 | Ret | Abl | Pyk2 | Fak | Kdr | Jnk2
≤ 10 µM: all other assays above

Cc1ccccc1C(=O)c1c[nH]c2ncc(-c3ccc(C(N)=O)cc3)cc12 [Compound P-1011]
≤ 10 µM: Jnk3 | Ret | Abl

Cc1cc(C(=O)c2c[nH]c3ncc(-c4cccc(N)c4)cc23)n(C)n1 [Compound P-1115]
≤ 10 µM: Ret | Abl

Cc1ccc(S(=O)(=O)NCc2c[nH]c3ncc(-c4ccsc4)cc23)cc1 [Compound P-1127]
≤ 10 µM: Abl
